Measurements taken from patent publication US8658131B2, “Compounds comprising 4-benzoylpiperidine as a sigma-1-selective ligand” (Washington University, priority 2010, dated 2014).
Where “and” joins values, the source holds several entries; their conditions need not be identical. Equal entries are not always repeated. Structures can show the parent of a compound that is named as a salt. Where two headings read alike, the source gives them in different places.

How the values were obtained:
σ2 receptor [1] = target: T1, σ2 receptor (Rattus norvegicus, UniProt Q5U3Y7); assay: σ2 receptor binding assay, [3H]DTG, rat liver membrane homogenates; parameters: conducted using rat liver membrane homogenates; from tissue; host or cells: rat liver membrane homogenates
T1 sequence (Q5U3Y7 1-176): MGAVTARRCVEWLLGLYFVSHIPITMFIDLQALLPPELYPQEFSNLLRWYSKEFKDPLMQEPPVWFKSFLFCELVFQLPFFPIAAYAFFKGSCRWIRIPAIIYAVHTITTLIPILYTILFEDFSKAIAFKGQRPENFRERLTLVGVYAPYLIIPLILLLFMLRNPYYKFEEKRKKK
Protocol: (§1) The compounds were dissolved in DMF, DMSO, or ethanol, and then diluted in 50 mM Tris-HCl buffer containing 150 mM NaCl and 100 mM EDTA at pH 7.4, prior to performing the σ1 and σ2 receptor binding assays.
The incubation time was 2 h at room temperature. Nonspecific binding was determined from samples that contained 10 μM of cold haloperidol. All other procedures were identical to those described for the σ1 receptor binding assay above.
(§2) Ki values were calculated using the method of Cheng and Prusoff and are presented as the mean (±1 SEM).

σ1 receptor = target: T2, σ1 receptor (Cavia porcellus, UniProt Q60492); assay: σ1 receptor binding assay, (+)-[3H]pentazocine, guinea pig brain membranes
T2 construct: using guinea pig brain membrane homogenates; from tissue; host or cells: guinea pig brain membrane homogenates
T2 sequence (Q60492 whole entry): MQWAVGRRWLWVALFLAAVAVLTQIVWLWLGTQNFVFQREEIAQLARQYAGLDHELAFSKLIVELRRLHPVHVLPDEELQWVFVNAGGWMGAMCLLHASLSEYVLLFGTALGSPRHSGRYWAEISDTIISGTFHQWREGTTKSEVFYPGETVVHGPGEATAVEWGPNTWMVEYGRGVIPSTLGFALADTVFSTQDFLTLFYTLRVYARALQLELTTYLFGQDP
Protocol: as §1
The total incubation time was 90 min at room temperature. Nonspecific binding was determined from samples that contained 10 μM of cold haloperidol. After 90 min, the reaction was quenched by adding 150 μL of ice-cold wash buffer (10 mM Tris-HCl, 150 mM NaCl, pH 7.4) using a 96 channel transfer pipet (Fisher Scientific, Pittsburgh, Pa.). The samples were harvested and filtered rapidly through a 96-well fiberglass filter plate (Millipore, Billerica, Mass.) that had been presoaked with 100 μL of 50 mM Tris-HCl buffer at pH 8.0 for 1 h.
as §2

[2] = target: T3, human vesicular acetylcholine transporter (VAChT) (Homo sapiens, UniProt Q16572); assay: VAChT binding assay, (−)-[3H]vesamicol, human VAChT expressed in PC12 cells
T3 construct: expressed in transfected cells; host or cells: PC12 A123.7 cells (crude extract / homogenized, partially clarified cells)
T3 sequence (Q16572 1-532): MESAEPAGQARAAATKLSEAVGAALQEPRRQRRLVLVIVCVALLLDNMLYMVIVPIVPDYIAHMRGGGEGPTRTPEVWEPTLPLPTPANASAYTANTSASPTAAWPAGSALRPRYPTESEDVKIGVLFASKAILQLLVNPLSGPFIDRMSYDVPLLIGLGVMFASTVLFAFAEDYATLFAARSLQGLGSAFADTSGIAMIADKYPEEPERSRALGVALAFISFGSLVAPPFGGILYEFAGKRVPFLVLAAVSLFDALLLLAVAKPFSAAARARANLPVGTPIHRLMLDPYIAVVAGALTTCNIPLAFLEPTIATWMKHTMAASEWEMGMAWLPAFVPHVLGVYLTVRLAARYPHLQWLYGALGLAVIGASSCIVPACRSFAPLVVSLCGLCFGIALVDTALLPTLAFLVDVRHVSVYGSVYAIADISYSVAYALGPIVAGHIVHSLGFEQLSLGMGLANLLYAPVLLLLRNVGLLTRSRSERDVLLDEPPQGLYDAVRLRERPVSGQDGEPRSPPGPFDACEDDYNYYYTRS
Protocol: In vitro binding assays of these novel compounds to VAChT were conducted with human vesicular acetylcholine transporter (VAChT) permanently expressed in PC12^A123.7 cells at about 50 pmol/mg of crude extract. […] Duplicate data were averaged and fitted by regression with a rectangular hyperbola to estimate the Ki value of the novel compound. All compounds were independently assayed at least two times.

VAChT = target: T4, VAChT (Tetronarce californica, UniProt P81721); assay: biochemical; assay type: binding; settings: for VAChT/σ selectivity: in words; for σ1/VAChT: selectivity index Ki (σ1)/Ki (VAChT); for σ2/VAChT: selectivity index Ki (σ2)/Ki (VAChT)
T4 construct: using highly purified Torpedo synaptic vesicles; from tissue
T4 sequence (P81721 1-515): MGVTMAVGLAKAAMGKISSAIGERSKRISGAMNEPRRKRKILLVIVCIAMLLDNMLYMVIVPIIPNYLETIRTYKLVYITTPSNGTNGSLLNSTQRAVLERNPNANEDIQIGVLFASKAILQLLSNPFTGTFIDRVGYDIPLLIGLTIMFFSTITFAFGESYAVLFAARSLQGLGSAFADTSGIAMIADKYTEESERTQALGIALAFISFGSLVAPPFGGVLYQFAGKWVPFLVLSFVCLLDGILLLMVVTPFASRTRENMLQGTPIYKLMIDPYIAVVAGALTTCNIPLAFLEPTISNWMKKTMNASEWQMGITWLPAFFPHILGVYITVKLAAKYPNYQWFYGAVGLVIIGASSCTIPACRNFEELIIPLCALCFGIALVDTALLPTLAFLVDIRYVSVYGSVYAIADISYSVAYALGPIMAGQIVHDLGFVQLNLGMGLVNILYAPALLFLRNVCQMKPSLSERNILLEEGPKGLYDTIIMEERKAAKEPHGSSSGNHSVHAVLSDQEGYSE

σ2 receptor [3] = target: T1, σ2 receptor; assay: σ2 binding of Table 5 compounds; parameters: species or system guinea pig; settings: read-out: σ2 Ki (nM) ± SEM; Table 6
Protocol: Compounds were tested for VAChT binding using highly purified Torpedo synaptic vesicles. The σ1 and σ2 binding affinities were tested in rat brain and in guinea pig membranes, respectively. Structures and Equilibrium binding constants (Ki) are reported in Table 5 and Table 6, respectively. As in previous studies, we define ligand selectivity in terms of a selectivity index which is calculated as Ki (σ1 or σ2)/Ki (VAChT).
Consequently, we also screened the target compounds for sigma binding to identify selective VAChT ligands from this new structural class of agents.

[4] = Table 4, Ki values of VAChT specific compounds, tissue not given, read-out: Sigma-2 σ1
[5] = Table 4, Ki values of VAChT specific compounds, tissue not given, read-out: Sigma-1 σ1
[6] = Table 4, Ki values of VAChT specific compounds, source not given, read-out: VAChT
[7] = expressed human VAChT, mean ± SEM, read-out: VAChT (Ki)
[8] = homogenates of rat liver, mean ± SEM, read-out: σ2 (Ki)

Cc1ccc(C(=O)N2CCC(O)C(N3CCC(C(=O)c4ccc(F)cc4)CC3)C2)s1 (centres unmarked) [WW-III-41]
Ki (σ2 receptor [1]; [4]): 16400 ± 1480 nM

O=C(c1ccc(F)cc1)C1CCN(C2CN(Cc3cccnc3)CCC2O)CC1 (centres unmarked) [WW-III-47]
Ki (σ1 receptor; [5]): 1160 ± 128 nM
Ki [2, 6]: 237 ± 41.4 nM
Ki (σ2 receptor [1]; [4]): 13000 ± 2630 nM

O=C(c1ccc(F)cc1)C1CCN(C2CN(C(=O)c3cccnc3)CCC2O)CC1 (centres unmarked) [WW-III-45]
Ki [2, 6]: 807 ± 139 nM
Ki (σ2 receptor [1]; [4]): 15500 ± 2170 nM

COc1ccc(C(=O)C2CCN(C3CN(Cc4ccccc4)CCC3O)CC2)cc1 (centres unmarked) [Compound 16g, (1′-Benzyl-4′-hydroxy-[1,3′-bipiperidin]-4-yl)(4-methoxyphenyl)methanone]
Ki [2, 7]: 35.5 ± 11.1 nM
Ki (σ2 receptor [1]; [8]): 8540 ± 1900 nM

O=C(c1cncc(F)c1)C1CCN(C2Cc3ccccc3CC2O)CC1 (centres unmarked) [TZ-4-1-96, (5-Fluoropyridin-3-yl)(1-(3-hydroxy-1,2,3,4-tetrahydronaphthalen-2-yl)piperidin-4-yl)methanone oxalate]
Ki (VAChT): 10.1 ± 1.54 nM
VAChT/σ selectivity (VAChT): moderate or high
σ1/VAChT (VAChT): 70.2
σ2/VAChT (VAChT): 167.3
Ki (σ2 receptor [3]): 1690 ± 56 nM

O=C(c1ccc(F)cc1)C1CCN(C2CN(C(=O)c3cccs3)CCC2O)CC1 (centres unmarked) [WW-III-43]
Ki (σ2 receptor [1]; [4]): 4050 ± 244 nM

Cn1c(C(=O)C2CCN(C3Cc4ccccc4CC3O)CC2)cccc1=O (centres unmarked) [TZ-4-1-148, 6-(1-(3-Hydroxy-1,2,3,4-tetrahydronaphthalen-2-yl)piperidine-4-carbonyl)-1-methylpyridin-2(1H)-one]
Ki (VAChT): 182 ± 64.8 nM
VAChT/σ selectivity (VAChT): poor selectivity
σ1/VAChT (VAChT): 11.8
σ2/VAChT (VAChT): 18.3
Ki (σ2 receptor [3]): 3340 ± 127 nM

Cc1ccc(C(=O)C2CCN(C3Cc4c(N)cccc4CC3O)CC2)cn1 (centres unmarked) [OS-5-70, (1-(8-amino-3-hydroxy-1,2,3,4-tetrahydronaphthalen-2-yl)piperidin-4-yl)(6-methylpyridin-3-yl)methanone oxalate]
Ki [2, 6]: 48 ± 11.4 nM
Ki (VAChT): 48 ± 11.4 nM
Ki (σ2 receptor [3]): 27500 ± 6940 nM
Ki (σ2 receptor [1]; [4]): 27500 ± 6940 nM

COc1ccc(C(=O)C2CCN(C3CN(Cc4ccccc4)CCC3O)CC2)cc1 (centres unmarked) [WW-1-109]
Ki (σ1 receptor; [5]): 208 ± 53 nM
Ki [2, 6]: 35.5 ± 11.1 nM
Ki (σ2 receptor [1]; [4]): 8540 ± 1900 nM

COc1ccc(C(=O)C2CCN(C3CN(C(=O)c4cccnc4)CCC3O)CC2)cc1 (centres unmarked) [WW-III-13]
Ki (σ2 receptor [1]; [4]): 24300 ± 1910 nM

COc1ccc(C(=O)C2CCN(C3CN(C(=O)c4cccs4)CCC3O)CC2)cc1 (centres unmarked) [WW-III-21]
Ki (σ2 receptor [1]; [4]): 6380 ± 1000 nM

O=C(c1ccc(F)nc1)C1CCN(C2Cc3ccccc3CC2O)CC1 (centres unmarked) [TZ-4-1-154, (6-fluoropyridin-3-yl)(1-(3-hydroxy-1,2,3,4-tetrahydronaphthalen-2-yl)piperidin-4-yl)methanone oxalate]
Ki (VAChT): 26.1 ± 2.41 nM
VAChT/σ selectivity (VAChT): moderate or high
σ1/VAChT (VAChT): 26.2
σ2/VAChT (VAChT): 67.0
Ki (σ2 receptor [3]): 1750 ± 93 nM

O=C(c1ccc(F)cc1)C1CCN(C2CCN(C(=O)c3ccc(F)cc3)CC2O)CC1 (centres unmarked) [Compound 15a, (3′-Hydroxy-[1,4′-bipiperidine]-1′,4-diyl)bis(4-fluorophenyl)methanone]
Ki [2, 7]: 3600 ± 499 nM

O=C(c1ncccc1OCCF)C1CCN(C2Cc3ccccc3CC2O)CC1 (centres unmarked) [TZ-4-2-12, (3-(2-fluoroethoxy)pyridin-2-yl)(1-(3-hydroxy-1,2,3,4-tetrahydronaphthalen-2-yl)piperidin-4-yl)methanone oxalate]
Ki (VAChT): 76.4 ± 8.33 nM
VAChT/σ selectivity (VAChT): poor selectivity
σ1/VAChT (VAChT): 262.0
σ2/VAChT (VAChT): 4.0
Ki (σ2 receptor [3]): 303 ± 130 nM

O=C(c1ccc(F)cc1)C1CCN(C2CN(C(=O)c3ccccc3)CCC2O)CC1 (centres unmarked) [WW-1-39]
Ki (σ2 receptor [1]; [4]): 3950 ± 278 nM

Cn1ccc(C(=O)C2CCN(C3Cc4ccccc4CC3O)CC2)c1 (centres unmarked) [TZ-4-1-114, (1-(3-Hydroxy-1,2,3,4-tetrahydronaphthalen-2-yl)piperidin-4-yl)(1-methyl-1H-pyrrol-3-yl)methanone oxalate]
Ki (σ2 receptor [3]): 7710 ± 1060 nM

COc1ccc(C(=O)C2CCN(C3CN(C(=O)c4ccc(C)s4)CCC3O)CC2)cc1 (centres unmarked) [WW-III-17]
Ki (σ2 receptor [1]; [4]): 24400 ± 3630 nM

(4′-Hydroxy-1′-(pyridin-4-ylmethyl)-[1,3′-bipiperidin]-4-yl)(4-methoxyphenyl)methanone [Compound 16h]
Ki (σ2 receptor [1]; [8]): 17100 ± 3860 nM

O=C(c1ccc(F)cc1)C1CCN(C2CCN(Cc3ccc(F)cc3)CC2O)CC1 (racemic) [Compound 14a, (1′-(4-Fluorobenzyl)-3′-hydroxy-[1,4′-bipiperidin]-4-yl)(4-fluorophenyl)methanone]
Ki (σ1 receptor; membrane preparations of guinea pig brain, mean ± SEM, at least three experiments, read-out: σ1 (Ki)): < 5 nM and 0.48 nM

COc1cccnc1C(=O)C1CCN(C2Cc3ccccc3CC2O)CC1 (centres unmarked) [TZ-4-1-92, (1-(3-Hydroxy-1,2,3,4-tetrahydronaphthalen-2-yl)piperidin-4-yl)(3-methoxypyridin-2-yl)methanone oxalate]
Ki (VAChT): 121 ± 29.2 nM
VAChT/σ selectivity (VAChT): poor selectivity
σ1/VAChT (VAChT): 173.3
σ2/VAChT (VAChT): 12.9
Ki (σ2 receptor [3]): 1560 ± 63 nM

O=C(c1cccnc1F)C1CCN(C2Cc3ccccc3CC2O)CC1 (centres unmarked) [TZ-4-1-122, (2-fluoropyridin-3-yl)(1-(3-hydroxy-1,2,3,4-tetrahydronaphthalen-2-yl)piperidin-4-yl)methanone]
Ki (VAChT): 12.7 ± 2.41 nM
VAChT/σ selectivity (VAChT): moderate or high
σ1/VAChT (VAChT): 102.2
σ2/VAChT (VAChT): 277.9
Ki (σ2 receptor [3]): 3530 ± 331 nM

COc1ccc(C(=O)C2CCN(C3CN(C(=O)c4ccccc4)CCC3O)CC2)cc1 (centres unmarked) [WW-1-67]
Ki (σ2 receptor [1]; [4]): 4850 ± 649 nM

Nc1cccc2c1CC(N1CCC(C(=O)c3ccc(F)cc3)CC1)C(O)C2 (single isomer, unassigned) [WW-1-88-2]
Ki (σ1 receptor; [5]): 3550 ± 438 nM
Ki [2, 6]: 20.9 ± 4.98 nM
Ki (σ2 receptor [1]; [4]): 6890 ± 546 nM

Cc1ccsc1C(=O)N1CCC(O)C(N2CCC(C(=O)c3ccc(F)cc3)CC2)C1 (centres unmarked) [WW-III-39]
Ki (σ2 receptor [1]; [4]): 4220 ± 205 nM

Cn1ccc(C(=O)C2CCN(C3Cc4ccccc4CC3O)CC2)cc1=O (centres unmarked) [TZ-4-1-150, 4-(1-(3-Hydroxy-1,2,3,4-tetrahydronaphthalen-2-yl)piperidine-4-carbonyl)-1-methylpyridin-2(1H)-one oxalate]
Ki (VAChT): 66.2 ± 10.2 nM
VAChT/σ selectivity (VAChT): moderate or high
σ1/VAChT (VAChT): 50.5
σ2/VAChT (VAChT): 32.1
Ki (σ2 receptor [3]): 2120 ± 251 nM

Nc1cccc2c1CC(N1CCC(C(=O)c3ccc(F)cc3)CC1)C(O)C2 (single isomer, unassigned) [WW-1-88-1]
Ki (σ1 receptor; [5]): 3690 ± 537 nM
Ki [2, 6]: 366 ± 36 nM
Ki (σ2 receptor [1]; [4]): 14700 ± 1940 nM

COc1ccc(C(=O)C2CCN(C3CN(Cc4cccnc4)CCC3O)CC2)cc1 (centres unmarked) [WW-III-25]
Ki (σ1 receptor; [5]): 2230 ± 168 nM
Ki [2, 6]: 107 ± 11.1 nM
Ki (σ2 receptor [1]; [4]): 17100 ± 3860 nM

COc1ccc(C(=O)C2CCN(C3CN(C(=O)c4ccc(F)cc4)CCC3O)CC2)cc1 (centres unmarked) [WW-1-107]
Ki (σ2 receptor [1]; [4]): 2600 ± 363 nM

O=C(c1ccc(F)cc1)C1CCN(C2CN(C(=O)c3ccc(F)cc3)CCC2O)CC1 (centres unmarked) [WW-1-123]
Ki [2, 6]: 8700 ± 1620 nM
Ki (σ2 receptor [1]; [4]): 1380 ± 135 nM

COc1ccc(C(=O)C2CCN(C3Cc4ccccc4CC3O)CC2)cc1 (centres unmarked) [DZT-I-107]
Ki (σ1 receptor; [5]): 132 ± 10.1 nM
Ki [2, 6]: 4.64 ± 0.47 nM
Ki (σ2 receptor [1]; [4]): 1953 ± 13.1 nM

COc1ccc(C(=O)N2CCC(O)C(N3CCC(C(=O)c4ccc(F)cc4)CC3)C2)cc1 (centres unmarked) [WW-1-35]
Ki (σ2 receptor [1]; [4]): > 10000 nM
